Source: patent US7812022B2 (GlaxoSmithKline LLC, priority 2004, dated 2010)
pIC50: −log10 of the molar value. Read-outs that look alike come from different tables or passages of the source.

What was measured:
[1] = tested on: BT474 and HN5 tumor cell lines; assay: Methylene blue growth inhibition assay (cellular Method A); type: cell-based, Human; details: 3 days, read-out: Activity (Method): growth inhibition IC50 class
In short: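 Growth inhibition measured by methylene blue staining of biomass (OD 620) after 3 days' compound exposure at 37° C, final DMSO 0.3%. Cell lines: BT474 (10,000/well), HN5 (3,000/well) and Colo205, all in DMEM with 10% FBS; IC50 fitted by nonlinear regression against vehicle-treated wells.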

Colo205 tumor cell lines = assay: Methylene blue growth inhibition assay (cellular Method A), Colo205; type: cell-based, Human; details: Homo sapiens, COLO 205, 72 h, 3 days, read-out: Activity (Method): growth inhibition IC50 class
Description: Human breast (BT474) and head and neck (HN5) were cultured in low glucose DMEM (Life Technologies 12320-032) containing 10% fetal bovine serum (FBS). Human colon tumor cells (Colo205) were cultured in DMEM (Invitrogen, 10564) containing 10% FBS. The SV40 transformed human mammary epithelial cell line HB4a was transfected with either human H-ras cDNA (HB4a r4.2) or the human c-ErbB2 cDNA (HB4a c5.2). The HB4a clones were cultured in RPMI containing 10% FBS, insulin (5 g/mL), hydrocortisone (5 g/mL), supplemented with the selection agent hygromycin B (50 g/mL). All lines were grown in a humidified incubator at 37° C. in 95% air, 5% CO2. Cells were harvested using trypsin/EDTA, counted using a haemocytometer, and plated in 100 microliters of the appropriate media, at the following densities, in a 96-well tissue culture plate (Falcon 3075): BT474 10,000 cells/well, HN5 3,000 cells/well. The next day, compounds were diluted in DMEM containing […] gentamicin, at twice the final required concentration, from 10 mM stock solutions in DMSO. 100 microliters/well of these dilutions were added to the 100 microliters of media currently on the cell plates. Medium containing 0.6% DMSO was added to control wells. Compounds diluted in DMEM were added to all cell lines. The final concentration of DMSO in all wells was 0.3%. Cells were returned to the incubator (37° C., 10% CO2) for 3 days. Medium was then removed by aspiration. Cell biomass was estimated by staining cells with 90 microliters per well methylene blue (Sigma M9140, 0.5% in 1:1 ethanol:water), and incubation at rt for at least 30 minutes. Stain was removed, and the plates rinsed by immersion in deionized water and air-dried. To release stain from the cells 100 microliters of solubilization solution was added (1% N-lauroyl sarcosine, Sodium salt, Sigma L5125, in PBS), and plates were shaken gently for about 30 minutes. Optical density at 620 nm was measured on a microplate reader. Percent inhibition of cell growth was calculated relative to vehicle treated control wells. Concentration of compound that inhibits 50% of control cell growth (IC50) was interpolated using nonlinear regression (Levenberg-Marquardt) and the equation, y=Vmax*(1−(x/(K+x)))+Y2, where “K” was equal to the IC50. Method B: Celltiter Glo® Growth Inhibition Assays

ErbB2 or EGFR = biological target: T1, ErbB2 or EGFR; assay: ErbB family substrate phosphorylation enzyme assay (HTRF), Method A or Method B; type: biochemical
T1 construct: enzymes purified from a baculovirus expression system; Reagent production was conducted essentially as described in Brignola, P. S., et al, (2002) J. Biol. Chem. 277(2): 1576-1585
In short: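 Baculovirus-expressed EGFR or ErbB2 (0.8 or 10 nM in enzyme mix) phosphorylates biotinylated Peptide C with 20 µM ATP and 0.8 µM peptide (substrate-mix levels), MnCl2, pH 7.5. Reaction ran 90 min at 20 °C with EDTA stop and HTRF anti-phosphotyrosine read. Method A: enzyme added last; Method B: 1 h enzyme–compound preincubation.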

[2] = Method A: substrate mix added first, reaction started with enzyme mix
[3] = Method B: enzyme mix pre-incubated with compound 1 hour at 20° C., started with substrate mix

Compound | pIC50 ([1]; Homo sapiens, BT-474, 72 h) | pIC50 (Colo205 tumor cell lines) | pIC50 [1] | Activity (Method): pIC50 class against ErbB2 or EGFR (ErbB2 or EGFR; [2]) | Activity (Method): pIC50 class against ErbB2 or EGFR (ErbB2 or EGFR; [3])
O=C(Nc1ccccc1)Nc1cccc(-c2nn3ccccc3c2-c2ccnc(Nc3ccc4c(c3)OCCO4)n2)c1 [Example 1, 1-(3-{3-[2-(2,3-Dihydro-benzo[1,4]dioxin-6-ylamino)-pyrimidin-4-yl]-pyrazolo[1,5-]pyridin-2-yl}-phenyl)-3-phenyl-urea] | < 6.00 | < 6.00 | – | ++ (A) (at least one pIC50 measurement greater than 6 against either ErbB2 or EGFR but no measurement greater than pIC50 of 7) | –
O=C(Nc1cccc(-c2nn3ccccc3c2-c2ccnc(Nc3ccc4c(c3)OCCO4)n2)c1)Nc1ccccc1Cl [Example 2, N-(2-Chlorophenyl)-N-(3-{3-[2-(2,3-dihydro-1,4-benzodioxin-6-ylamino)-4-pyrimidinyl]pyrazolo[1,5-a]pyridin-2-yl}phenyl)urea] | < 6.00 | < 6.00 | – | ++ (A) (at least one pIC50 measurement greater than 6 against either ErbB2 or EGFR but no measurement greater than pIC50 of 7) | –
O=C(Nc1cccc(-c2nn3ccccc3c2-c2ccnc(Nc3ccc(-c4cc[nH]n4)cc3)n2)c1)c1c(F)cccc1F [Example 101, 2,6-Difluoro-N-{3-[3-(2-{[4-(1H-pyrazol-3-yl)phenyl]amino}-4-pyrimidinyl)pyrazolo[1,5-a]pyridin-2-yl]phenyl}benzamide] | 6.00 to 7.00 | < 6.00 | – | – | –
O=C(Nc1cccc(-c2nn3ccccc3c2-c2ccnc(Nc3ccc(N4CCCC4)c(F)c3)n2)c1)c1c(F)cccc1F [Example 148, 2,6-Difluoro-N-{3-[3-(2-{[3-fluoro-4-(1-pyrrolidinyl)-phenyl]amino}-4-pyrimidinyl)pyrazolo[1,5-a]pyridin-2-yl]phenyl}benzamide] | > 7.00 | – | – | +++ (A) (at least one pIC50 measurement of greater than 7 against either ErbB2 or EGFR) | –
Cn1cccc1C(=O)Nc1cccc(-c2nn3ccccc3c2-c2ccnc(Nc3ccccc3)n2)c1 [Example 149, N-{3-[3-(2-phenylamino-4-pyrimidinyl)-pyrazolo[1,5-b]pyridin-2-yl]phenyl}-1-methyl-1H-pyrrole-2-carboxamide] | 6.00 to 7.00 | – | – | ++ (A) (at least one pIC50 measurement greater than 6 against either ErbB2 or EGFR but no measurement greater than pIC50 of 7) | –
O=C(Nc1cccc(-c2nn3c(C(F)(F)F)cccc3c2-c2ccnc(Nc3ccccc3)n2)c1)c1c(F)cccc1F [Example 152, N-[3-(3-{2-[Phenylamino]-4-pyrimidinyl}-7-trifluoropyrazolo[1,5-b]pyridin-2-yl)phenyl]-2,6-difluorobenzamide] | 6.00 to 7.00 | – | – | – | ++ (B) (at least one pIC50 measurement greater than 6 against either ErbB2 or EGFR but no measurement greater than pIC50 of 7)
COc1ccc(Nc2nccc(-c3c(-c4cccc(NC(=O)c5c(F)cccc5F)c4)nn4c(C(F)(F)F)cccc34)n2)cc1F [Example 154, N-[3-(3-[2-{3-fluoro4-methoxyphenylamino]-4-pyrimidinyl}-7-trifluoropyrazolo[1,5-b]pyridin-2-yl)phenyl]-2,6-difluorobenzamide] | 6.00 to 7.00 | – | – | ++ (A) (at least one pIC50 measurement greater than 6 against either ErbB2 or EGFR but no measurement greater than pIC50 of 7) | –
Cc1cccc2c(-c3ccnc(Nc4cccc(C(F)(F)F)c4)n3)c(-c3cccc(NC(=O)c4c(F)cccc4F)c3)nn12 [Example 155, 2,6-Difluoro-N-{3-[7-methyl-3-(2-{[3-(trifluoro-methyl)phenyl]amino}pyrimidin-4-yl)pyrazolo[1,5-a]pyridin-2-yl]phenyl}benzamide] | 6.00 to 7.00 | – | – | ++ (A) (at least one pIC50 measurement greater than 6 against either ErbB2 or EGFR but no measurement greater than pIC50 of 7) | –
COc1cccc2c(-c3ccnc(Nc4cccc(C(F)(F)F)c4)n3)c(-c3cccc(NC(=O)c4c(F)cccc4F)c3)nn12 [Example 158, 2,6-Difluoro-N-{3-[7-methoxy-3-(2-{[3-(trifluoro-methyl)phenyl]amino}pyrimidin-4-yl)pyrazolo[1,5-a]pyridin-2-yl]phenyl}benzamide] | 6.00 to 7.00 | – | – | ++ (A) (at least one pIC50 measurement greater than 6 against either ErbB2 or EGFR but no measurement greater than pIC50 of 7) | –
CN(C)C1Cc2ccc(Nc3nccc(-c4c(-c5cccc(NC(=O)c6c(F)cccc6F)c5)nn5ccccc45)n3)cc2C1 (centres unmarked) [Example 176, N-{3-[3-(2-{[2-(Dimethylamino)-2,3-dihydro-1H-inden-5-yl]amino}-4-pyrimidinyl)pyrazolo[1,5-a]pyridin-2-yl]phenyl}-2,6-difluorobenzamide] | > 7.00 | 6.00 to 7.00 | – | – | –
N-[3-(3-{2-[4-(4-Cyanophenyl)phenylamino]-4-pyrimidinyl}-7-trifluoropyrazolo[1,5-b]pyridin-2-yl)phenyl]-2,6-difluorobenzamide [Example 93] | – | – | 6.00 to 7.00 | ++ (A) (at least one pIC50 measurement greater than 6 against either ErbB2 or EGFR but no measurement greater than pIC50 of 7) | –

Second part, led by results:

pIC50 ([1]; Homo sapiens, BT-474, 72 h) | pIC50 (Colo205 tumor cell lines) | pIC50 [1] | Compound | Activity (Method): pIC50 class against ErbB2 or EGFR (ErbB2 or EGFR; [2]) | Activity (Method): pIC50 class against ErbB2 or EGFR (ErbB2 or EGFR; [3])
> 7.00 | 6.00 to 7.00 | – | CC(c1cccc(Nc2nccc(-c3c(-c4cccc(NC(=O)c5c(F)cccc5F)c4)nn4ccccc34)n2)c1)S(C)(=O)=O (racemic) [Example 117, 2,6-Difluoro-N-(3-{3-[2-({3-[1-(methylsulfonyl)ethyl]-phenyl}amino)-4-pyrimidinyl]pyrazolo[1,5-a]pyridin-2-yl}phenyl)benzamide] | ++ (A) (at least one pIC50 measurement greater than 6 against either ErbB2 or EGFR but no measurement greater than pIC50 of 7) | –
> 7.00 | 6.00 to 7.00 | – | NC(=O)c1ccc(Nc2nccc(-c3c(-c4cccc(NC(=O)c5c(F)cccc5F)c4)nn4ccccc34)n2)cc1 [Example 104, N-{3-[3-(2-{[4-(Aminocarbonyl)phenyl]amino}-4-pyrimidinyl)pyrazolo[1,5-a]pyridin-2-yl]phenyl}-2,6-difluorobenzamide-ethane (1:1)] | – | –
6.00 to 7.00 | – | – | COc1cc(Nc2nccc(-c3c(-c4cccc(NC(=O)c5c(F)cccc5F)c4)nn4c(C(F)(F)F)cccc34)n2)cc(OC)c1OC [Example 151, N-[3-(3-{2-[(3,4,5-Trimethoxyphenyl)amino]-4-pyrimidinyl}-7-trifluoropyrazolo[1,5-b]pyridin-2-yl)phenyl]-2,6-difluorobenzamide] | ++ (A) (at least one pIC50 measurement greater than 6 against either ErbB2 or EGFR but no measurement greater than pIC50 of 7) | –
6.00 to 7.00 | – | – | O=C(Nc1cccc(-c2nn3c(C(F)(F)F)cccc3c2-c2ccnc(Nc3cccc(F)c3)n2)c1)c1c(F)cccc1F [Example 153, N-[3-(3-{2-[3-Fluorophenylamino]-4-pyrimidinyl}-7-trifluoropyrazolo[1,5-b]pyridin-2-yl)phenyl]-2,6-difluorobenzamide] | – | +++ (B) (at least one pIC50 measurement of greater than 7 against either ErbB2 or EGFR)
6.00 to 7.00 | – | – | COc1ccc(Nc2nccc(-c3c(-c4cccc(NC(=O)c5c(F)cccc5F)c4)nn4c(C)cccc34)n2)cc1F [Example 157, 2,6-Difluoro-N-[3-(3-{2-[(3-fluoro-4-methoxy-phenyl)amino]pyrimidin-4-yl}-7-methylpyrazolo[1,5-a]pyridin-2-yl)phenyl]benzamide] | ++ (A) (at least one pIC50 measurement greater than 6 against either ErbB2 or EGFR but no measurement greater than pIC50 of 7) | –
